Biological target: Shp2 (Homo sapiens (Human), UniProt Q06124)
Experiment: PTP activity assay (DiFMUP substrate) with GST-Shp2
Type: biochemical
Conditions: for IC50: Table II, Shp2
Text: All constructs were verified by DNA sequencing.
Recombinant DEP1 was from Abcam.

Chain of Shp2 (Q06124 205-593): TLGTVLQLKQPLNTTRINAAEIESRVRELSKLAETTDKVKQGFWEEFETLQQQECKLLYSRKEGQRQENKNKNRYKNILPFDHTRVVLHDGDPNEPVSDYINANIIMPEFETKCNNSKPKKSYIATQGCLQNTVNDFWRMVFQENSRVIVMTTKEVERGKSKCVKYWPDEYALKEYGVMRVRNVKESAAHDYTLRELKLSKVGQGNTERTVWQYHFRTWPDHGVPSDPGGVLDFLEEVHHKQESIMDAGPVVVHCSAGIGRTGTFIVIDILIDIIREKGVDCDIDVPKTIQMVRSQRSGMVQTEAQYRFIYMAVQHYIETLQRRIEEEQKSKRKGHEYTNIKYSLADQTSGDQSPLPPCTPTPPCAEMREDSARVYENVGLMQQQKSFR

| Compound | % PTP activity (concentration not given) | IC50 [µM] | % PTP activity (at 20 μM) |
| --- | --- | --- | --- |
| O=C1Nc2ccc(S(=O)(=O)N3CCOCC3)cc2/C1=N/Nc1ccccc1[N+](=O)[O-] [RPM177] | 36 ± 8% (6) |  |  |
| O=C(O)c1ccc2cc(C(=O)Nc3c(O)cccc3C(=O)O)ccc2c1 [RPM204] |  | 33 to 100 | 68 ± 5% (3) at 20 uM |
| CC(C)NS(=O)(=O)c1ccc2c(c1)/C(=C/Nc1ccc(C(=O)O)cc1)C(=O)N2 [RPM305, 4-[(5-Isopropylsulfamoyl-2-oxo-1,2-dihydro-indol-3-ylidenemethyl)amino]benzoic acid] |  | 33 to 100 | 56.77% (1) at 20 μM |
| COCCNS(=O)(=O)c1ccc2c(c1)/C(=N/Nc1ccccc1[N+](=O)[O-])C(=O)N2 [RPM171, 3-[(2-Nitrophenyl)hydrazono]-2-oxo-2,3-dihydro-1H-indole-5-sulfonic acid (2-methoxyethyl)amide] | 44 ± 8% (12) |  |  |
| COC(=O)c1ccc2cc(C(=O)Nc3ccc(C(=O)O)cc3)ccc2c1 [RPM185] |  |  | 71 ± 3% (3) at 20 uM |
| O=C1Nc2ccc(S(=O)(=O)NCc3ccco3)cc2/C1=N/Nc1ccccc1[N+](=O)[O-] [RPM168, 3-[(2-Nitrophenyl)hydrazono]-2-oxo-2,3-dihydro-1H-indole-5-sulfonic acid (furan-2-ylmethyl)amide] | 42 + 4% (6) |  |  |
| O=C1Nc2ccc(S(=O)(=O)NCc3ccco3)cc2/C1=N/Nc1ccccc1Cl [HL2-016-11] | 55 ± 7% (6) |  |  |
| O=C1Nc2ccc(S(=O)(=O)O)cc2/C1=N/Nc1ccccc1C(=O)O [RPM211, 2-[N′-(2-Oxo-5-sulfo-1,2-dihydro-indol-3-ylidene)hydrazino]benzoic acid] |  | 33 to 100 | 67 ± 8% at 20 μM |
| O=C1Nc2ccc(C(=O)O)cc2/C1=N/Nc1ccccc1Cl [RPM270] |  | 33 to 100 | 45 ± 18% (2) At 20 μM |
| O=C1Nc2ccc(S(=O)(=O)O)cc2/C1=N/Nc1cccc2ccccc12 [RPM223, 3-(Naphthalen-1-ylhydrazono)-2-oxo-2,3-dihydro-1H-indole-5-sulfonic acid] |  | 33 to 100 | 76 + 12% at 20 μM |
| CC(C)NC(=O)c1ccc2c(c1)/C(=N/Nc1ccccc1C(=O)O)C(=O)N2 [HL2-070-6] |  |  | 78.87% (1) at 20 μM |
| COC(=O)c1ccc2[nH]cc(C(=O)c3ccccc3)c2c1 [RPM341, 3-Benzoyl-1H-indole-5-carboxylic acid methyl ester] |  |  | 42 ± 10% (2) at 20 μM |
| O=C1Nc2ccc(S(=O)(=O)O)cc2/C1=N/Nc1ccccc1F [RPM220, 2-Oxo-3-[(2-fluorophenylhydrazono)]-2,3-dihydro-1H-indole-5-sulfonic acid] |  |  | 73 ± 10% (3) at 20 μM |
| O=C1Nc2ccc(S(=O)(=O)NCc3ccc(Cl)cc3)cc2/C1=C/Nc1ccccc1[N+](=O)[O-] [RPM310] |  |  | 66.20% (1) At 20 μM |
| CC(C)NS(=O)(=O)c1ccc2c(c1)/C(=N/Nc1ccccc1C(=O)NCc1ccco1)C(=O)N2 [RPM292, N-Furan-2-ylmethyl-2-[N′-(5-isopropylsulfamoyl-2-oxo-1,2-dihydro-indol-3-ylidene)hydrazino]benzamide] |  | 33 to 100 | 47 ± 7% (20 At 20 μM |
| CC(C)NS(=O)(=O)c1ccc2c(c1)/C(=N/Nc1cccc(C(=O)NCCN3CCOCC3)c1)C(=O)N2 [RPM334, 3-[N′-(5-Isopropylsulfamoyl-2-oxo-1,2-dihydro-indol-3-ylidene)hydrazino]-N-(2-morpholin-4-yl-ethyl)benzamide] |  |  | 39 ± 5% (2) at 20 μM |
| CN(C)CCNS(=O)(=O)c1ccc2c(c1)/C(=N/Nc1ccccc1[N+](=O)[O-])C(=O)N2 [RPM146, 3-[(2-Nitrophenyl)hydrazono]-2-oxo-2,3-dihydro-1H-indole-5-sulfonic acid (2-dimethylaminoethyl)amide] | 57 ± 6% (6) |  |  |
| CN(C)CCNS(=O)(=O)c1ccc2c(c1)/C(=N/Nc1ccccc1Cl)C(=O)N2 [HL2-016-19] | 89 ± 3% (6) |  |  |
| CC(C)NC(=O)c1ccc2c(c1)/C(=N/Nc1cccc(C(=O)O)c1)C(=O)N2 [HL2-070-7] |  |  | 53.62% (1) at 20 μM |
| CN1C(=O)/C(=N\Nc2ccccc2[N+](=O)[O-])c2cc(S(=O)(=O)N(C)C)ccc21 [RPM154] | 73 ± 3% (6) |  |  |
| COC(=O)c1ccccc1N/C=C1\C(=O)Nc2ccc(S(=O)(=O)NC(C)C)cc21 [RPM335, 2-[(5-Isopropylsulfamoyl-2-oxo-1,2-dihydro-indol-3-ylidenemethyl)amino]benzoic acid methyl ester] |  | 33 to 100 | 54.19% (1) At 20 μM |
| O=C1Nc2ccc(S(=O)(=O)NCc3cccnc3)cc2/C1=N/Nc1ccccc1Cl [HL2-016-18] | 78 ± 10% (6) |  |  |
| CCNC(=O)c1ccccc1N/N=C1\C(=O)Nc2ccc(S(=O)(=O)NC(C)C)cc21 [RPM296, N-Ethyl-2-[N′-(5-isopropylsulfamoyl-2-oxo-1,2-dihydro-indol-3-ylidene)hydrazino]benzamide] |  |  | 48 ± 2% (2) At 20 μM |

| Compound | % PTP activity (concentration not given) | IC50 [µM] | % PTP activity (at 20 μM) |
| --- | --- | --- | --- |
| O=C1Nc2ccccc2/C1=N/Nc1ccccc1[N+](=O)[O-] [HL1-047] | 93 ± 9% (3) | 33 to 100 |  |
| CC(C)NS(=O)(=O)c1ccc2c(c1)/C(=N/Nc1cccc(C(=O)NCc3cccnc3)c1)C(=O)N2 [RPM332, 3-[N′-(5-Isopropylsulfamoyl-2-oxo-1,2-dihydro-indol-3-ylidene)hydrazino]-N-pyridin-3-ylmethylbenzamide] |  | 33 to 100 | 54 ± 7% (2) at 20 μM |
| Cc1ccccc1N/N=C1\C(=O)Nc2ccc(S(=O)(=O)O)cc21 [RPM216, 2-Oxo-3-[(2-methylphenylhydrazono)]-2,3-dihydro-1H-indole-5-sulfonic acid] |  |  | 50 ± 14% (3) at 20 μM |
| O=C1C=CC2C(=C1O)Oc1c(ccc(O)c1O)C2C1CCCCC1C(=O)O (centres unmarked) [NSC-119910, reference compound] | 0.56 ± 0.1% (3) |  |  |
| COC(=O)c1ccc2cc(C(=O)Nc3ccc(S(N)(=O)=O)cc3)ccc2c1 [RPM187] |  |  | 66 ± 4% (3) at 20 uM |
| CN(C)S(=O)(=O)c1ccc2c(c1)/C(=N/Nc1ccccc1[N+](=O)[O-])C(=O)N2 [RPM124, 3-[(2-Nitrophenyl)hydrazono]-2-oxo-2,3-dihydro-1H-indole-5-sulfonic acid dimethylamide] | 52 ± 5% (6) | 33 to 100 |  |
| O=C1Nc2ccc(S(=O)(=O)NCc3ccccn3)cc2/C1=N/Nc1ccccc1[N+](=O)[O-] [RPM135, 3-[(2-Nitrophenyl)hydrazono]-2-oxo-2,3-dihydro-1H-indole-5-sulfonic acid (pyridin-2-ylmethyl)amide] | 47 ± 10% (12) | 33 to 100 |  |
| COc1ccc(CNS(=O)(=O)c2ccc3c(c2)/C(=N/Nc2ccccc2[N+](=O)[O-])C(=O)N3)cc1 [RPM138, 3-[(2-Nitrophenyl)hydrazono]-2-oxo-2,3-dihydro-1H-indole-5-sulfonic acid 4-methoxybenzylamide] | 36 ± 4% (6) |  |  |
| CN(Cc1ccccc1)S(=O)(=O)c1ccc2c(c1)/C(=N/Nc1ccccc1Cl)C(=O)N2 [HL2-016-16] | 64 ± 12% (6) |  |  |
| CCNC(=O)c1cccc(N/N=C2\C(=O)Nc3ccc(S(=O)(=O)NC(C)C)cc32)c1 [RPM331, N-Ethyl-3-[N′-(5-isopropylsulfamoyl-2-oxo-1,2-dihydro-indol-3-ylidene)hydrazino]benzamide] |  |  | 45 + 2% 92) at 20 μM |
| CC(C)NS(=O)(=O)c1ccc2c(c1)/C(=N/Nc1ccccc1C(=O)NCc1cccnc1)C(=O)N2 [RPM290, 2-[N′-(5-Isopropylsulfamoyl-2-oxo-1,2-dihydro-indol-3-ylidene)hydrazino]-N-pyridin-3-ylmethylbenzamide] |  | 33 to 100 | 46 ± 2% (2) At 20 μM |
| O=C1Nc2ccc(S(=O)(=O)O)cc2/C1=N/Nc1c(F)c(F)c(F)c(F)c1F [RPM222, 2-Oxo-3-(pentafluorophenylhydrazono)-2,3-dihydro-1H-indole-5-sulfonic acid] |  | 33 to 100 | 58 ± 6% (3) at 20 μM |
| CN(C)CCCNS(=O)(=O)c1ccc2c(c1)/C(=N/Nc1ccccc1Cl)C(=O)N2 [HL2-016-22] | 80 ± 0.7% (6) |  |  |
| O=C1Nc2ccc(S(=O)(=O)O)cc2/C1=N/Nc1nc2ccccc2s1 [HL1-058-3] | 46 ± 4% (3) | 33 to 100 |  |
| O=C1Nc2ccc(S(=O)(=O)NCc3ccc(Cl)cc3)cc2/C1=N/Nc1ccccc1Cl [HL2-016-4] | 32 ± 17% (12) |  |  |
| CC(C)NS(=O)(=O)c1ccc2c(c1)/C(=N/Nc1cccc(C(N)=O)c1)C(=O)N2 [RPM325, 3-[N′-(5-Isopropylsulfamoyl-2-oxo-1,2-dihydro-indol-3-ylidene)hydrazino]benzamide] |  | 33 to 100 | 40 + 4% (2) at 20 μM |
| CC(C)NS(=O)(=O)c1ccc2c(c1)/C(=N/Nc1ccccc1)C(=O)N2 [RPM275, 3-(Phenylhydrazono)-2-oxo-2,3-dihydro-1H-indole-5-sulfonic acid isopropylamide] |  |  | 58.53% (1) at 20 μM |
| CC(C)NS(=O)(=O)c1ccc2c(c1)/C(=N/Nc1ccccc1C(=O)NCCN(C)C)C(=O)N2 [RPM284, N-(2-Dimethylaminoethyl)-2-[N′-(5-isopropylsulfamoyl-2-oxo-1,2-dihydro-indol-3-ylidene)hydrazino]benzamide] |  |  | 47 ± 6% (2) At 20 μM |
| O=C1Nc2ccc(S(=O)(=O)NCc3ccncc3)cc2/C1=N/Nc1ccccc1[N+](=O)[O-] [RPM145, 3-[(2-Nitrophenyl)hydrazono]-2-oxo-2,3-dihydro-1H-indole-5-sulfonic acid (pyridin-4-ylmethyl)amide] | 37 + 11% (12) |  |  |
| O=C1Nc2ccc(C(=O)O)cc2/C1=N/Nc1ccccc1[N+](=O)[O-] [HL2-054] |  |  | 60.57% (1) at 20 μM |
| CCCNS(=O)(=O)c1ccc2c(c1)/C(=N/Nc1ccccc1Cl)C(=O)N2 [HL2-016-9] | 48 ± 1% (6) |  |  |
| NS(=O)(=O)c1ccc2c(c1)/C(=N/Nc1ccccc1Cl)C(=O)N2 [HL2-016.2] | 40 ± 8% (12) |  |  |
| CC(C)NS(=O)(=O)c1ccc2c(c1)/C(=C/Nc1cccc(C(=O)O)c1)C(=O)N2 [RPM304, 3-[(5-Isopropylsulfamoyl-2-oxo-1,2-dihydro-indol-3-ylidenemethyl)amino]benzoic acid] |  | 33 to 100 | 82.31% (1) At 20 μM |
